Results taken from patent US20230192700A1, “PYRAZOLOPYRAZINES ACTING ON CANCERS VIA INHIBITION OF CDK12” (Bayer Aktiengesellschaft, priority 2020, published 2023).

Key:
CDK12/CyclinK = target: T1, CDK12/CyclinK (Homo sapiens, UniProt Q9NYV4); experiment: CDK12/CycK high ATP kinase assay (TR-FRET); type: biochemical; conditions: 2 mM ATP (high ATP); median; read-out: CDK12/CyclinK, 2 mM ATP (high ATP), IC50 - [mol/l] (median)
T1 construct: His-CDK12 (aa Q696-S1082); made in house; host or cells: Hi-5 insect cells (baculovirus co-infection with CycK and yeast CAK1)
T1 sequence (Q9NYV4 with tags, fused parts or gaps): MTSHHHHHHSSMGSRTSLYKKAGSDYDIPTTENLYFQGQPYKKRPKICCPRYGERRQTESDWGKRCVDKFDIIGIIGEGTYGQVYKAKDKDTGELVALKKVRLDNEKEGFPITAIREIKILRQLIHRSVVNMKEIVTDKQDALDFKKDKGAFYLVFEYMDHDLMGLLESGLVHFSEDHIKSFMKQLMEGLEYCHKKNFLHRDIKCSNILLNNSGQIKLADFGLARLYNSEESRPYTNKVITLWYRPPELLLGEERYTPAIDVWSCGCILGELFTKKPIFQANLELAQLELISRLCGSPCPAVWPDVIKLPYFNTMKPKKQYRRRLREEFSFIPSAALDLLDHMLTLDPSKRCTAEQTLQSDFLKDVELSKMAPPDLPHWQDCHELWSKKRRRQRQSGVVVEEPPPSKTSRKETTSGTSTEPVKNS
T1 sequence (O75909 with tags, fused parts or gaps partner limits assumed): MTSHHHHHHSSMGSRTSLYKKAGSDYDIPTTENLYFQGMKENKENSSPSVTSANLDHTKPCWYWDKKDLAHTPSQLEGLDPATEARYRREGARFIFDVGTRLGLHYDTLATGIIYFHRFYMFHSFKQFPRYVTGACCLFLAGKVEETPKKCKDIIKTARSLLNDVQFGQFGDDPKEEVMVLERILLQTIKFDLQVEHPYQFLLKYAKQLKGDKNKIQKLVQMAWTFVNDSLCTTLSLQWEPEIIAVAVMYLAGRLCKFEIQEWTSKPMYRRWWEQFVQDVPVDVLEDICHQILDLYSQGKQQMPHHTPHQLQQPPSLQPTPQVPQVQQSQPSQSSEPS
Description: 2.2 CDK12/CycK high ATP Kinase Assay
In the context of the present invention, the term “IC50 CDK12 hATP” refers to the ICso values obtained according to the assay described in this section (2.2) herein below, i.e. the IC50 values for the inhibition of CDK12 at high ATP.
CDK12/CycK -inhibitory activity of compounds of the present invention at 2 millimol/L adenosine-tri-phosphate (ATP) was quantified employing the TR-FRET (TR-FRET=Time Resolved Fluorescence Energy Transfer) based CDK12/CycK activity inhibition assay as described in the following paragraphs.
A complex of human recombinant CDK12 and human recombinant CycK (both N-terminally His-tagged, expression and purification as described above) was used as enzyme. As substrate for the kinase reaction biotinylated peptide biotin-Ahx-KFELLPTPPLSPSRRSGL (C-terminus in amid form) was used which can be purchased e.g. form the company Biosyntan (Berlin-Buch, Germany).
For the assay 50 nanoL of a 100 fold concentrated solution of the test compound in DMSO was pipetted into either a black low volume 384 well microtiter plate or a black 1536 well microtiter plate (both Greiner Bio-One, Frickenhausen, Germany), 2 microL of a solution of CDK12/CycK in aqueous assay buffer [25 millimol/L HEPES pH 7.5, 20 millimol/L MgCl2, 5 millimol/L β-glycerophosphate, 2 millimol/L EGTA, 1.0 millimol/L dithiothreitol, 0.01% (v/v) Nonidet-P40 (Sigma), 0.01% (w/v) bovine serum albumin] were added and the mixture was incubated for 15 min at 22° C. to allow pre-binding of the test compounds to the enzyme before the start of the kinase reaction. Then the kinase reaction was started by the addition of 3 microL of a solution ATP (3.33 millimol/L=>final conc. in the 5 microL assay volume is 2 millimol/L) and substrate (1.67 micromol/L=>final conc. in the 5 microL assay volume is 1 micromol/L) in assay buffer and the resulting mixture was incubated for a reaction time of 60 min at 22° C. The concentration of CDK12/CycK was adjusted depending of the activity of the enzyme lot and was chosen appropriate to have the assay in the linear range, typical concentrations were about 0.75 nanomol/L. The reaction was stopped by the addition of 3 microL of a solution of TR-FRET detection reagents (125 nanomol/L streptavidine-XL665 [Cisbio Bioassays, Codolet, France] and 0.67 nanomol/L anti-Phospho-c-Myc (Ser 62) (E1J4K)-antibody from Cell Signalling [#13748] and 2 nanomol/L LANCE EU-W1024 labeled anti-rabbit IgG antibody [Perkin-Elmer, product no. 0083]) in an aqueous EDTA-solution (133 millimol/L EDTA, 0.27% (w/v) bovine serum albumin in 66.7 millimol/L HEPES pH 7.5).
The resulting mixture was incubated 1 h at 22° C. to allow the formation of complex between the phosphorylated biotinylated peptide and the detection reagents. Subsequently the amount of phosphorylated substrate was evaluated by measurement of the resonance energy transfer from the Eu-chelate to the streptavidine-XL. Therefore, the fluorescence emissions at 620 nm and 665 nm after excitation at 350 nm was measured in a TR-FRET reader, e.g. a Pherastar FS (BMG Labtechnologies, Offenburg, Germany) or a Viewlux (Perkin-Elmer). The ratio of the emissions at 665 nm and at […] was taken as the measure for the amount of phosphorylated substrate. The data were normalised (enzyme reaction without inhibitor=0% inhibition, all other assay components but no enzyme=100% inhibition).

[1] = test system: BRCA1 mRNA expression in MDA-MB-231 cells; experiment: qRT-PCR assay: inhibition of BRCA1 mRNA expression in MDA-MB-231 cells; type: cell-based, human; conditions: Homo sapiens, MDA-MB-231, 24 h, 24 h exposure, BRCA1 mRNA normalised to GAPDH, median, read-out: RTqPCR-MDA-MB-231 IC50 [mol/l] BRCA1 (median)
Procedure: 3. qRT-PCR Assay: BRCA1, ATR, MCL1 in MDA-MB-231, CAL-120
Tissue cultured human MDA-MB-231 human breast cancer cells were plated in 500 microL per well at 200,000 cells/well in a 24 well microtiter plate. After 24 h, the cells were exposed continuously for 24 h to test substances (substances were added with Tecan HP D300 Dispenser). RNA was prepared using Qiagen RNeasy MiniKit (#74106), RNA was quantified using a NanoDrop Equipment, and 600 nano gamms of RNA was coverted to cDNA using a SuperScript VILO kit (Thermofisher #11755050) followed by qPCR amplification. BRCA1 and ATR gene expression was measured by RT-qPCR and normalised to GAPDH housekeeping gene expression. qPCR primer sets have been purchased from Thermo Fisher Scientific/Applied Biosystems: BRCA1, # Hs 01556193; ATR, #Hs 00992123; GAPDH, #Hs 03929097.

Compound	IC50 (CDK12/CyclinK) [nM]	IC50 [1] [nM]
Cc1cccc2[nH]c(CNc3nn(C4CCOCC4)c4nc(C5CC5)cnc34)nc12 [Example 33, 6-cyclopropyl-N-[(4-methyl-1H-benzimidazol-2-yl)methyl]-1-(oxan-4-yl)-1H-pyrazolo[3,4-b]pyrazin-3-amine]	> 20000	16.9
CN1CCC(n2nc(NCc3nc4cc(Cl)ccc4[nH]3)c3ncc(C4CC4)nc32)CC1 [Example 22, N-[(5-chloro-1H-benzimidazol-2-yl)methyl]-6-cyclopropyl-1-(1-methylpiperidin-4-yl)-1H-pyrazolo[3,4-b]pyrazin-3-amine]	> 20000	9.36
CN1CCC(n2nc(NCc3nc4cc(Cl)c(F)cc4[nH]3)c3ncc(C4CC4)nc32)CC1 [Example 29, N-[(5-chloro-6-fluoro-1H-benzimidazol-2-yl)methyl]-6-cyclopropyl-1-(1-methylpiperidin-4-yl)-1H-pyrazolo[3,4-b]pyrazin-3-amine]	> 20000	9.47
COc1cccc2[nH]c(CNc3nn(C4CCN(C)CC4)c4nc(C5CC5)cnc34)nc12 [Example 2, 6-cyclopropyl-N-[(4-methoxy-1H-benzimidazol-2-yl)methyl]-1-(1-methylpiperidin-4-yl)-1H-pyrazolo[3,4-b]pyrazin-3-amine]	> 20000	8.55
c1ccc2[nH]c(CNc3nn(C4C[C@H]5CC[C@@H](C4)O5)c4nc(C5CC5)cnc34)nc2c1 (stereo partly drawn) [Example 45, exo/endo-N-[(1H-benzimidazol-2-yl)methyl]-6-cyclopropyl-1-(8-oxabicyclo[3.2.1]octan-3-yl)-1H-pyrazolo[3,4-b]pyrazin-3-amine]	–	7.6
O[C@H]1CC[C@H](n2nc(NCc3nc4cc(F)ccc4[nH]3)c3ncc(C4CC4)nc32)CC1 [Example 56, trans-4-(6-cyclopropyl-3-{[(5-fluoro-1H-benzimidazol-2-yl)methyl]amino}-1H-pyrazolo[3,4-b]pyrazin-1-yl)cyclohexan-1-ol]	> 18100	–
Cc1cccc2[nH]c(CNc3nn(C4CCN(C)CC4)c4nc(C5CC5)cnc34)nc12 [Example 8, 6-cyclopropyl-N-[(4-methyl-1H-benzimidazol-2-yl)methyl]-1-(1-methylpiperidin-4-yl)-1H-pyrazolo[3,4-b]pyrazin-3-amine]	> 20000	–
CC1CC(n2nc(NCc3nc4ccccc4[nH]3)c3ncc(C4CC4)nc32)CCO1 (racemic) [Example 44, (±)-cis/trans-N-[(1H-benzimidazol-2-yl)methyl]-6-cyclopropyl-1-(2-methyloxan-4-yl)-1H-pyrazolo[3,4-b]pyrazin-3-amine]	–	24.2
O[C@H]1C[C@H](n2nc(NCc3nc4ccccc4[nH]3)c3ncc(C4CC4)nc32)C1 [Example 43, trans-3-(3-{[(1H-benzimidazol-2-yl)methyl]amino}-6-cyclopropyl-1H-pyrazolo[3,4-b]pyrazin-1-yl)cyclobutan-1-ol]	–	28.9

Now from value to molecule, other results behind:

IC50 (CDK12/CyclinK) [nM]	Compound	IC50 [1] [nM]
> 20000	c1ccc2[nH]c(CNc3nn(C4CCOC4)c4nc(C5CC5)cnc34)nc2c1 (single isomer, unassigned) [Example 17, (+) or (−)-N-[(1H-benzimidazol-2-yl)methyl]-6-cyclopropyl-1-(oxolan-3-yl)-1H-pyrazolo[3,4-b]pyrazin-3-amine]	10.9
> 20000	CC(C)n1nc(NCc2nc3ccccc3[nH]2)c2ncc(C3CC3)nc21 [Example 14, N-[(1H-benzimidazol-2-yl)methyl]-6-cyclopropyl-1-(propan-2-yl)-1H-pyrazolo[3,4-b]pyrazin-3-amine]	42.9
> 20000	O[C@H]1C[C@@H](Cn2nc(NCc3nc4ccccc4[nH]3)c3ncc(C4CC4)nc32)C1 [Example 71, cis-3-[(3-{[(1H-benzimidazol-2-yl)methyl]amino}-6-cyclopropyl-1H-pyrazolo[3,4-b]pyrazin-1-yl)methyl]cyclobutan-1-ol]	3.01
> 20000	CN1CCC(n2nc(NCc3nc4ccccc4[nH]3)c3ncc(C4CC4)nc32)C1 (single isomer, unassigned) [Example 78, (+) or (−)-N-[(1H-benzimidazol-2-yl)methyl]-6-cyclopropyl-1-(1-methylpyrrolidin-3-yl)-1H-pyrazolo[3,4-b]pyrazin-3-amine]	15.6
> 20000	CN1CCCC(n2nc(NCc3nc4ccccc4[nH]3)c3ncc(C4CC4)nc32)CC1 (racemic) [Example 34, (±)-N-[(1H-benzimidazol-2-yl)methyl]-6-cyclopropyl-1-(1-methylazepan-4-yl)-1H-pyrazolo[3,4-b]pyrazin-3-amine]	22.5
> 20000	CN1CCC(n2nc(NCc3nc4ccccc4[nH]3)c3ncc(C4CC4)nc32)C1 (racemic) [Example 35, (±)-N-[(1H-benzimidazol-2-yl)methyl]-6-cyclopropyl-1-(1-methylpyrrolidin-3-yl)-1H-pyrazolo[3,4-b]pyrazin-3-amine]	30.2
> 20000	O[C@H]1C[C@H](Cn2nc(NCc3nc4ccccc4[nH]3)c3ncc(C4CC4)nc32)C1 [Example 70, trans-3-[(3-{[(1H-benzimidazol-2-yl)methyl]amino}-6-cyclopropyl-1H-pyrazolo[3,4-b]pyrazin-1-yl)methyl]cyclobutan-1-ol]	–
> 20000	c1ccc2[nH]c(CNc3nn(CC4CCC4)c4nc(C5CC5)cnc34)nc2c1 [Example 75, N-[(1H-benzimidazol-2-yl)methyl]-1-(cyclobutylmethyl)-6-cyclopropyl-1H-pyrazolo[3,4-b]pyrazin-3-amine]	–
> 20000	c1ccc2[nH]c(CNc3nn(C4CCNCC4)c4nc(C5CC5)cnc34)nc2c1 [Example 12, N-[(1H-benzimidazol-2-yl)methyl]-6-cyclopropyl-1-(piperidin-4-yl)-1H-pyrazolo[3,4-b]pyrazin-3-amine]	–
11100	c1ccc2[nH]c(CNc3nn(C4CC5(COC5)C4)c4nc(C5CC5)cnc34)nc2c1 [Example 54, N-[(1H-benzimidazol-2-yl)methyl]-6-cyclopropyl-1-(2-oxaspiro[3.3]heptan-6-yl)-1H-pyrazolo[3,4-b]pyrazin-3-amine]	–
> 20000	Cc1cnc2c(NCc3nc4ccccc4[nH]3)nn(C3CCN(C)CC3)c2n1 [Example 77, N-[(1H-benzimidazol-2-yl)methyl]-6-methyl-1-(1-methylpiperidin-4-yl)-1H-pyrazolo[3,4-b]pyrazin-3-amine]	–
> 10000	CC(C)(O)Cn1nc(NCc2nc3ccccc3[nH]2)c2ncc(C3CC3)nc21 [Example 69, 1-(3-{[(1H-benzimidazol-2-yl)methyl]amino}-6-cyclopropyl-1H-pyrazolo[3,4-b]pyrazin-1-yl)-2-methylpropan-2-ol]	–
